Target: T1, recombinant human 11 β-HSD1 (Homo sapiens, UniProt P28845)
T1 construct: made in house; host or cells: E. coli
Test: 11 β-HSD1 SPA Assay (Scintillation Proximity Assay)
Assay type: biochemical
How it was run: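 Scintillation proximity read-out of cortisol formed from 40 nM [3H]cortisone by purified recombinant human enzyme (30-100 nM, E. coli) with 1 mM NADPH, pH7.4, 2 hours at room temperature; beads with cortisol antibody and glycyrrhetinic acid stop the reaction, read next day. IC50 derived from inhibition normalised to background and maximal wells.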

T1 sequence (P28845 whole entry): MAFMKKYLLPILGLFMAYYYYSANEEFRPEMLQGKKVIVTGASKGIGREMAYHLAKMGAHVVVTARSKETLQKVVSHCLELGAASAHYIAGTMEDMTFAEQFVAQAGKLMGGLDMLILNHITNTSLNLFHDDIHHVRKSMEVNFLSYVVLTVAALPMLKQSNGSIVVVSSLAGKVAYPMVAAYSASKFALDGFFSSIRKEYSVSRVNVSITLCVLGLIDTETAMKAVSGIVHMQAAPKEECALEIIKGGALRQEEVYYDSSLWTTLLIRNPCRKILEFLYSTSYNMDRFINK

| Structure (SMILES) | IC50 [nM] |
| --- | --- |
| CC(C)(Oc1ccc(Cl)cc1Cl)C(=O)N[C@H]1C[C@H]2CC[C@@H](C1)N2c1ccc(S(C)(=O)=O)nc1 [Example 307, 2-[(2,4-dichlorophenyl)oxy]-2-methyl-N-{8-[6-(methylsulfonyl)pyridin-3-yl]-8-azabicyclo[3.2.1]oct-3-endo-yl}propanamide] | < 200 |
| CC(C)(Oc1cc(F)c(F)cc1F)C(=O)N[C@H]1C[C@H]2CC[C@@H](C1)N2c1ccc(S(C)(=O)=O)cn1 [Example 232, 2-methyl-N-{8-[5-(methylsulfonyl)pyridin-2-yl]-8-azabicyclo[3.2.1]oct-3-endo-yl}-2-[(2,4,5-trifluorophenyl)oxy]propanamide] | < 200 |
| C[C@H](NC(=O)c1ccc(N2C3CCC2CC(NC(=O)C(C)(C)Oc2ccc(Cl)cc2C(F)(F)F)C3)nc1)C(F)(F)F (stereo partly drawn) [Example 416, 6-[3-endo-({2-[4-chloro-2-(trifluoromethyl)phenoxy]-2-methylpropanoyl}amino)-8-azabicyclo[3.2.1]oct-8-yl]-N-[(2S)-1,1,1-trifluoropropan-2-yl]pyridine-3-carboxamide] | < 200 |
| CC(C)(Oc1ccc(F)cc1C(F)(F)F)C(=O)N[C@H]1C[C@H]2CC[C@@H](C1)N2c1ccc(S(C)(=O)=O)cn1 [Example 176, 2-{[4-fluoro-2-(trifluoromethyl)phenyl]oxy}-2-methyl-N-{8-[5-(methylsulfonyl)pyridin-2-yl]-8-azabicyclo[3.2.1]oct-3-endo-yl}propanamide] | < 200 |
| CC(C)(Oc1ncc(C(F)(F)F)cc1Cl)C(=O)N[C@H]1C[C@H]2CC[C@@H](C1)N2c1ccc(C(=O)NCC(F)(F)F)cn1 [Example 151, 6-{3-endo-[(2-{[3-chloro-5-(trifluoromethyl)pyridin-2-yl]oxy}-2-methylpropanoyl)amino]-8-azabicyclo[3.2.1]oct-8-yl}-N-(2,2,2-trifluoroethyl)pyridine-3-carboxamide] | < 200 |
| Cc1ccc(OC(C)(C)C(=O)N[C@H]2C[C@H]3CC[C@@H](C2)N3c2ccc(S(N)(=O)=O)cn2)c(Cl)c1 [Example 213, N-{8-[5-(aminosulfonyl)pyridin-2-yl]-8-azabicyclo[3.2.1]oct-3-endo-yl}-2-[(2-chloro-4-methylphenyl)oxy]-2-methylpropanamide] | < 200 |
| O=C(O)c1ccc(N2[C@@H]3CC[C@H]2C[C@@H](NC(=O)C2(c4ccc(Cl)cc4)CC2)C3)nc1 [Example 19, 6-[3-endo-({[1-(4-chlorophenyl)cyclopropyl]carbonyl}amino)-8-azabicyclo[3.2.1]oct-8-yl]pyridine-3-carboxylic acid] | < 2000 |
| CC(C)(Oc1ccc(Cl)cc1Cl)C(=O)NC1CC2CCC(C1)N2c1ccc(C(=O)NCC(O)C(F)(F)F)cn1 (stereo not drawn) [Example 421, 6-(3-endo-{[2-(2,4-dichlorophenoxy)-2-methylpropanoyl]amino}-8-azabicyclo[3.2.1]oct-8-yl)-N-(3,3,3-trifluoro-2-hydroxypropyl)pyridine-3-carboxamide] | < 200 |
| CC(C)(Oc1ccc(Cl)cc1Cl)C(=O)N[C@H]1C[C@H]2CC[C@@H](C1)N2c1ccc(C(=O)NC2CCS(=O)(=O)CC2)cn1 [Example 379, 6-(3-endo-{[2-(2,4-dichlorophenoxy)-2-methylpropanoyl]amino}-8-azabicyclo[3.2.1]oct-8-yl)-N-(1,1-dioxidotetrahydro-2h-thiopyran-4-yl)pyridine-3-carboxamide] | < 200 |
| CC(C)NC(=O)c1ccc(N2[C@@H]3CC[C@H]2C[C@@H](NC(=O)C(C)(C)Oc2ccc(F)c(Cl)c2)C3)nc1 [Example 95, 6-[3-endo-({2-[(3-chloro-4-fluorophenyl)oxy]-2-methylpropanoyl}amino)-8-azabicyclo[3.2.1]oct-8-yl]-N-(1-methylethyl)pyridine-3-carboxamide] | < 200 |
| CC(C)(Oc1ccc(OC(F)(F)F)cc1)C(=O)N[C@H]1C[C@H]2CC[C@@H](C1)N2c1ccc(C(=O)NCC(F)(F)F)cn1 [Example 128, 6-(3-endo-{[2-methyl-2-({4-[(trifluoromethyl)oxy]phenyl}oxy)propanoyl]amino}-8-azabicyclo[3.2.1]oct-8-yl)-N-(2,2,2-trifluoroethyl)pyridine-3-carboxamide] | < 200 |
| CC(C)(Oc1nccc2ccccc12)C(=O)N[C@H]1C[C@H]2CC[C@@H](C1)N2c1ccc(C(=O)NCC(F)(F)F)cn1 [Example 354, 6-(3-endo-{[2-(isoquinolin-1-yloxy)-2-methylpropanoyl]amino}-8-azabicyclo[3.2.1]oct-8-yl)-N-(2,2,2-trifluoroethyl)pyridine-3-carboxamide] | < 200 |
| CC(C)(Oc1ccc(Cl)cc1S(C)(=O)=O)C(=O)N[C@H]1C[C@H]2CC[C@@H](C1)N2c1ccc(S(N)(=O)=O)cn1 [Example 293, N-{8-[5-(aminosulfonyl)pyridin-2-yl]-8-azabicyclo[3.2.1]oct-3-endo-yl}-2-{[4-chloro-2-(methylsulfonyl)phenyl]oxy}-2-methylpropanamide] | < 2000 |
| CC(C)(Oc1ccc(Cl)c(Cl)c1)C(=O)N[C@H]1C[C@H]2CC[C@@H](C1)N2c1ccc(S(N)(=O)=O)cn1 [Example 205, N-{8-[5-(aminosulfonyl)pyridin-2-yl]-8-azabicyclo[3.2.1]oct-3-endo-yl}-2-[(3,4-dichlorophenyl)oxy]-2-methylpropanamide] | < 200 |
| CC(C)(Oc1ncc(Cl)cc1F)C(=O)N[C@H]1C[C@H]2CC[C@@H](C1)N2c1ccc(C(N)=O)cn1 [Example 142, 6-[3-endo-({2-[(5-chloro-3-fluoropyridin-2-yl)oxy]-2-methylpropanoyl}amino)-8-azabicyclo[3.2.1]oct-8-yl]pyridine-3-carboxamide] | < 200 |
| COc1ccc(OC(C)(C)C(=O)N[C@H]2C[C@H]3CC[C@@H](C2)N3c2ccc(S(N)(=O)=O)cn2)cc1 [Example 181, N-{8-[5-(aminosulfonyl)pyridin-2-yl]-8-azabicyclo[3.2.1]oct-3-endo-yl}-2-methyl-2-{[4-(methyloxy)phenyl]oxy}propanamide] | < 200 |
| CC(C)(Oc1ccc(F)c(Cl)c1)C(=O)N[C@H]1C[C@H]2CC[C@@H](C1)N2c1ccc(S(C)(=O)=O)cc1 [Example 228, 2-[(3-chloro-4-fluorophenyl)oxy]-2-methyl-N-{8-[4-(methylsulfonyl)phenyl]-8-azabicyclo[3.2.1]oct-3-endo-yl}propanamide] | < 2000 |
| O=C(NCC(F)(F)F)c1ccc(N2[C@@H]3CC[C@H]2C[C@@H](NC(=O)C2(c4ccc(F)c(F)c4)CC2)C3)nc1 [Example 121, 6-[3-endo-({[1-(3,4-difluorophenyl)cyclopropyl]carbonyl}amino)-8-azabicyclo[3.2.1]oct-8-yl]-N-(2,2,2-trifluoroethyl)pyridine-3-carboxamide] | < 200 |
| CC(C)(Oc1cc(F)ccc1C(F)(F)F)C(=O)N[C@H]1C[C@H]2CC[C@@H](C1)N2c1ccc(S(C)(=O)=O)cn1 [Example 267, 2-{[5-fluoro-2-(trifluoromethyl)phenyl]oxy}-2-methyl-N-{8-[5-(methylsulfonyl)pyridin-2-yl]-8-azabicyclo[3.2.1]oct-3-endo-yl}propanamide] | < 200 |
| CC(C)(Oc1ccc(F)cc1Cl)C(=O)N[C@H]1C[C@H]2CC[C@@H](C1)N2c1ccc(S(C)(=O)=O)cc1 [Example 173, 2-[(2-chloro-4-fluorophenyl)oxy]-2-methyl-N-{8-[4-(methylsulfonyl)phenyl]-8-azabicyclo[3.2.1]oct-3-endo-yl}propanamide] | < 200 |
| CC(Oc1ccccc1)C(=O)N[C@H]1C[C@H]2CC[C@@H](C1)N2c1ccc(C(=O)NC2CC2)cn1 (stereo partly drawn) [Example 48, N-cyclopropyl-6-(3-endo-{[2-(phenyloxy)propanoyl]amino}-8-azabicycio[3.2.1]oct-8-yl)pyridine-3-carboxamide] | < 2000 |
| CC(C)(Oc1ccc(Cl)cc1C(N)=O)C(=O)N[C@H]1C[C@H]2CC[C@@H](C1)N2c1ccc(C(=O)NCC(F)(F)F)cn1 [Example 360, 6-(3-endo-{[2-(2-carbamoyl-4-chlorophenoxy)-2-methylpropanoyl]amino}-8-azabicyclo[3.2.1]oct-8-yl)-N-(2,2,2-trifluoroethyl)pyridine-3-carboxamide] | < 200 |
| COCCNC(=O)c1ccc(N2[C@@H]3CC[C@H]2C[C@@H](NC(=O)C(C)Oc2ccc(Cl)cc2Cl)C3)nc1 (stereo partly drawn) [Example 68, 6-[3-endo-({2-[(2,4-dichlorophenyl)oxy]propanoyl}amino)-8-azabicyclo[3.2.1]oct-8-yl]-N-[2-(methyloxy)ethyl]pyridine-3-carboxamide] | < 2000 |
| CC(C)(Oc1ccc(Cl)cc1Cl)C(=O)N[C@H]1C[C@H]2CC[C@@H](C1)N2c1ccc(NC(=O)NCC(F)(F)F)cc1F [Example 137, 2-[(2,4-dichlorophenyl)oxy]-N-{8-[2-fluoro-4-({[(2,2,2-trifluoroethyl)amino]carbonyl}amino)phenyl]-8-azabicyclo[3.2.1]oct-3-endo-yl}-2-methylpropanamide] | < 200 |
| CC(C)(Oc1ncc(Cl)cc1F)C(=O)N[C@H]1C[C@H]2CC[C@@H](C1)N2c1ccc(S(N)(=O)=O)cn1 [Example 247, N-{8-[5-(aminosulfonyl)pyridin-2-yl]-8-azabicyclo[3.2.1]oct-3-endo-yl}-2-[(5-chloro-3-fluoropyridin-2-yl)oxy]-2-methylpropanamide] | < 2000 |
| Cc1cc(F)ccc1OC(C)(C)C(=O)N[C@H]1C[C@H]2CC[C@@H](C1)N2c1ccc(S(N)(=O)=O)cn1 [Example 218, N-{8-[5-(aminosulfonyl)pyridin-2-yl]-8-azabicyclo[3.2.1]oct-3-endo-yl}-2-[(4-fluoro-2-methylphenyl)oxy]-2-methylpropanamide] | < 200 |
| CC(C)(Oc1cc(C(C)(C)C(=O)O)c(Cl)cc1Cl)C(=O)N[C@H]1C[C@H]2CC[C@@H](C1)N2c1ccc(C(=O)NCC(F)(F)F)cn1 [Example 445, 2-[2,4-dichloro-5-({2-methyl-1-oxo-1-[(8-{5-[(2,2,2-trifluoroethyl)carbamoyl]pyridin-2-yl}-8-azabicyclo[3.2.1]oct-3-endo-yl)amino]propan-2-yl}oxy)phenyl]-2-methylpropanoic acid] | < 200 |

From patent publication US8163771B2, “11 β-HSD1 modulators” (Exelixis, Inc., priority 2008, dated 2012)
